# Experimental data: patent US20220168312A1, “MULTICOMPONENT CRYSTAL FORMULATIONS” (UNIVERSITY OF LIMERICK, priority 2019, published 2022)
# Legend:
# [1] = Tensile stress test of tablets; assay type: physicochemical
# Description: Hardness testing was performed immediately after tableting using a Pharma Test hardness tester. Each compaction force was tested in triplicate. Tensile strength was calculated according to the Equation 1 where F is the load required to fracture the tablet, D the table diameter and H the tablet height: Tensile strength=2F/πDH Equation 1: […]
# [2] = cited from earlier work
# [3] = assay type: physicochemical; settings: intrinsic dissolution of compacts, 37° C., relative to pure LAM
# Description: These compacts were each coated with paraffin wax, leaving one surface exposed and secured to the bottom of the dissolution apparatus with excess paraffin wax. Intrinsic solubility was determined using a 900 ml well filled with 900 ml of degassed, deionised water (or 0.1 M HCl solution) on a Pharma Test USP type II system. The solution had been previously equilibrated at 37° C. and the paddle speed was set to 100 rpm after adding the samples. Aliquots of media were withdrawn at 5, 10, 15, 20 30 and 60 minutes (or 0.25, 0.5, 1, 3, 6, 12 and 24 hours), filtered through 0.45 μm PTFE filters and tested via a UV spectrometer in triplicate.
# UV-Vis absorbance measurements were carried on a Cary 60 UV-Vis spectrometer using 1 ml quartz cuvettes.
# [4] = assay type: physicochemical
# Description: Stability testing: Accelerated stability testing was conducted by taking 100 mg of powdered sample and placing it into a humidity chamber under 75% relative humidity at 40° C. for 14 days. The samples were analysed before and after testing by PXRD, FT-IR, DSC and TGA.
# [5] = Thermal analysis (TGA); assay type: physicochemical; settings: 10° C./min, nitrogen
# Description: Thermal Analysis: Thermogravimetric analysis (TGA) was performed using a TA Instruments TGA-Q50 on at a constant rate of 10° C./min from 25° C. to 350° C. under a flux of nitrogen of 50 ml/min. Differential Scanning Calorimetry (DSC) was carried out using sealed aluminium pans on a TA instruments DSC-Q2000 differential scanning calorimeter. Temperature calibrations were made using indium as the standard. An empty pan, sealed in the same way as the sample, was used as a reference. All the thermograms were run at a heating/cooling rate of 10° C./min under a nitrogen purge at a rate of 50 ml/min.
# [6] = assay type: physicochemical; remark: listed apart in the source
# Description: The product was recovered by filtration and dried in air.
# Powder X-ray diffraction (PXRD): X-ray powder diffraction (XRPD) patterns were collected in Bragg-Brentano geometry on a PANalytical Empyrean diffractometer equipped with a sealed tube (Cu Kα12, λ=1.5418 Å) an 1D X'Celerator detector between 4 and 40° 2θ.
Compound,tablet hardness / tensile strength ([1]; tablets obtained with a compaction weight lower than 400 kg),half-life ([2]; in vivo),oral bioavailability ([2]; orally) [%],"intrinsic dissolution, faster than pure LAM [3] [×]",tensile strength compared with LAM ([1]; across a range of compaction forces),crystallinity after accelerated stability test (PXRD) [4],product degradation after accelerated stability test (FT-IR and DSC) [4],thermally stable up to (thermogravimetric analysis) [5],stability as a slurry in water (PXRD) [6]
"Nc1nnc(-c2cccc(Cl)c2Cl)c(N)n1 [LAM, lamotrigine]",too brittle to enable hardness testing,rather short half-life,90,,,,,,
lamotrigine:valproic acid (1:2) ionic cocrystal [LAMVAL],,,,2,significantly greater tensile strength,remains crystalline,no sign of product degradation,around 100 °C,stable as a slurry in water
